Assay results from US8247424B2, “Fredericamycin derivatives” (Zentopharm GmbH, priority 2002, dated 2012).
Converted amounts (≈) assume the structure as drawn.

Tests used:
[1] = Water solubility of the fredericamycin derivatives; type: physicochemical; conditions: 0.9% NaCl solution, pH 7
Text: The water solubility of the various fredericamycin derivatives can be determined in a 0.9% NaCl solution with a pH of 7.

[2] = test system: 12 cancer cell lines: LCL (H460, lung), MACL (MCF7, breast), LXFL (52L, lung), LXFA (629L, lung), MEXF (462NL, melanoma), MEXF (514L, melanoma), MAXF (401NL …); test: Biological activity against 12 cancer cell lines, efficacy (IC70) averaged over all cell lines; type: cell-based; conditions: averaged over all 12 cancer cell lines, 5 test concentrations;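 also: panel also covers renal lines RXF 944L and RXF 486L, uterine UXF 1138L, and prostate lines PRXF PC3M and PRXF 22RV1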
Protocol: LCL (H460, lung), MACL (MCF7, breast), LXFL (52L, lung), LXFA (629L, lung), MEXF (462NL, melanoma), MEXF (514L, melanoma), MAXF (401NL, breast), RXF (944L, renal), RXF (486L, renal), UXF (1138L, uterus), PRXF (PC3M, prostate), PRXF (22RV1).

[3] = Water solubility of the fredericamycin derivatives; type: physicochemical; conditions: statement in the synthesis text, medium not given

Row | Compound | water solubility [1] | IC70 [2] | water solubility compared to fredericamycin (1) [3]
1 | COC1=CC(=O)c2c(O)c3c(c(O)c2C1=O)C(=O)[C@]1(CCc2cc4cc(C(=O)O)[nH]c(=O)c4c(O)c21)C3=O [Example 11, (8S)-4′,9,9′-trihydroxy-6′-methoxy-1,1′,3′,5′,8′-pentaoxo-1,1′,2,3′,5′,6,7,8′-octahydrospiro[cyclopenta[g]isoquinoline-8,2′-cyclopenta[b]-naphthalene]-3-carboxylic acid] | sufficiently and markedly better soluble than fredericamycin |  | 
2 | COC1=CC(=O)c2c(O)c3c(c(O)c2C1=O)C(=O)[C@]1(CCc2cc4cc(C(=O)[O-])[nH]c(=O)c4c(O)c21)C3=O.[K+] [Example 12, Potassium(8S)-4′,9,9′-trihydroxy-6′-methoxy-1,1′,3′,5′,8′-pentaoxo-1,1′,2,3′,5′,6,7,8′-octahydrospiro[cyclopenta[g]isoquinoline-8,2′-cyclopenta[b]-naphthalene]-3-carboxylate] | sufficiently and markedly better soluble than fredericamycin |  | 
3 | COC1=CC(=O)c2c(O)c3c(c(O)c2C1=O)C(=O)[C@]1(CCc2cc4cc(C=O)[nH]c(=O)c4c(O)c21)C3=O [Example 3, (8S)-4′,9,9′-trihydroxy-6′-methoxy-1,1′,3′,5′,8′-pentaoxo-1,1′,2,3′,5′,6,7,8′-octahydrospiro[cyclopenta[g]isoquinoline-8,2′-cyclopenta[b]-naphthalene]-3-carbaldehyde] | dissolve very well |  | 
4 | (8S)-5-bromo-4′,9,9′-trihydroxy-6′-methoxy-1,1′,3′,5′,8′-pentaoxo-1,1′,2,3′,5′,6,7,8′-octahydrospiro[cyclopenta[g]isoquinoline-8,2′-cyclopenta[b]-naphthalene]-1,1′,3′,5′,8′(2H)-pentone [Example 13] | soluble | 0.0050 µg/mL | 
5 | CON=Cc1cc2cc3c(c(O)c2c(=O)[nH]1)[C@@]1(CC3)C(=O)c2c(O)c3c(c(O)c2C1=O)C(=O)C(OC)=CC3=O [Example 7, (8S)-4′,9,9′-trihydroxy-6′-methoxy-1,1′,3′,5′,8′-pentaoxo-1,1′,2,3′,5′,6,7,8′-octahydrospiro[cyclopenta[g]isoquinoline-8,2′-cyclopenta[b]-naphthalene]-3-carbaldehyde-O-methyloxime] | sufficiently and markedly better soluble than fredericamycin |  | 
6 | (8S)-4′,9,9′-trihydroxy-6′-methoxy-1,1′,3′,5′,8′-pentaoxo-1,1′,2,3′,5′,6,7,8′-octahydrospiro[cyclopenta[g]isoquinoline-8,2′-cyclopenta[b]-naphthalene]-1,1′,3′,5′,8′(2H)-pentone [Example 10] | soluble |  | 
7 | COC1=CC(=O)c2c(O)c3c(c(O)c2C1=O)C(=O)[C@@]1(CCc2cc4cc(C(O)C(O)C(O)C(C)O)[nH]c(=O)c4c(O)c21)C3=O (stereo partly drawn) [Example 1, 1-Desoxy-5-C-[(8R)-4′,9,9′-trihydroxy-6′-methoxy-1,1′,3′,5′,8′-pentaoxo-1,1′,2,3′,5′,6,7,8′-octahydrospiro[cyclopenta[g]isoquinoline-8,2′-cyclopenta[b]-naphalene]-3-yl]pentitol] |  | 0.1130 µg/mL (≈ 0.186 µM) | 
8 | N.N.[Cl][Pt][Cl] [cisplatin] |  | 37.1020 µg/mL | 
9 | COC1=CC(=O)c2c(O)c3c(c(O)c2C1=O)C(=O)[C@]1(CCc2cc4cc(/C=N/NC(=O)C[n+]5ccccc5)[nH]c(=O)c4c(O)c21)C3=O.[Cl-] [Example 5, 1-[2-Oxo-2-((2E)-2-{[(8S)-4′,9,9′-trihydroxy-6′-methoxy-1,1′,3′,5′,8′-pentaoxo-1,1′,2,3′,5′,6,7,8′-octahydrospiro[cyclopenta[g]isoquinoline-8,2′-cyclopenta[b]-naphthalene]-3-yl]methylene}hydrazino)-ethyl]pyridinium chloride] | sufficiently and markedly better soluble than fredericamycin |  | 
10 | C/C=C/C=C/c1cc2cc3c(c(O)c2c(=O)[nH]1)[C@@]1(CC3)C(=O)c2c(O)c3c(c(O)c2C1=O)C(=O)C(NC)=CC3=O [Example 265] |  | 0.1330 µg/mL (≈ 0.247 µM) | 
11 | (8S)-5-chloro-4′,6′,9′-trimethoxy-2-methoxy-3-[(1E,3E)-penta-1,3-dienyl]-6,7-dihydrospiro[cyclopenta[g]isoquinoline-8,2′-cyclopenta[b]-naphthalene]-1,1′,3′,5′,8′(2H)-pentone [Example 22] |  | 0.0080 µg/mL | 
12 | (8S)-4′,9,9′-trihydroxy-6′-methoxy-1,1′,3′,5′,8′-pentaoxo-1,1′,2,3′,5′,6,7,8′-octahydrospiro[cyclopenta[g]isoquinoline-8,2′-cyclopenta[b]-naphthalene]-3-carbaldehyde oxime [Example 6] | dissolves well |  | 
13 | COC1=CC(=O)c2c(O)c3c(c(O)c2C1=O)C(=O)C1(CCc2cc4cc(C(O)C(O)C(O)C(C)O)[nH]c(=O)c4c(O)c21)C3=O [Example 2, Tri-potassium-1-desoxy-5-C-[(8R)-4′,9,9′-trihydroxy-6′-methoxy-1,1′,3′,5′,8′-pentaoxo-1,1′,2,3′,5′,6,7,8′-octahydrospiro[cyclopenta[g]isoquinoline-8,2′-cyclopenta[b]-naphthalene]-3-yl]pentitol] | soluble |  | significantly higher water solubility
